Experiment: mn = molality of the nth substance listed, in mol/kg
Settings: Liquid, Vibrating tube method

NC(N)=O [urea] + O
298.15 K, 100 kPa
Settings | mass density [kg/m3]
m1 = 0.1001 | 998.63
m1 = 0.1999 | 1000.2
m1 = 0.3 | 1001.75
m1 = 0.4 | 1003.29
m1 = 0.5001 | 1004.81

NC(N)=O [urea] + OCCO
mass density [kg/m3], 99.6 kPa
Settings | 288.15 K | 298.15 K | 308.15 K | 318.15 K | 328.15 K
m1 = 0.0551 | 1117.63 | 1110.69 | 1103.68 | 1096.6 | 1089.43
m1 = 0.1487 | 1118.67 | 1111.72 | 1104.7 | 1097.61 | 1090.44
m1 = 0.3264 | 1120.61 | 1113.63 | 1106.59 | 1099.51 | 1092.34
m1 = 0.446 | 1121.88 | 1114.89 | 1107.84 | 1100.77 | 1093.59
m1 = 0.495 | 1122.39 | 1115.41 | 1108.35 | 1101.28 | 1094.1
m1 = 0.6616 | 1124.11 | 1117.13 | 1110.06 | 1103 | 1095.82
m1 = 0.8791 | 1126.28 | 1119.33 | 1112.26 | 1105.19 | 1098.01
m1 = 1.072 | 1128.14 | 1121.24 | 1114.15 | 1107.09 | 1099.92
m1 = 1.208 | 1129.41 | 1122.55 | 1115.46 | 1108.4 | 1101.23
m1 = 1.357 | 1130.76 | 1123.96 | 1116.88 | 1109.83 | 1102.66
m1 = 1.523 | 1132.23 | 1125.51 | 1118.42 | 1111.4 | 1104.22
